Data: publication PMC10227015, “From a drug repositioning to a structure-based drug design approach to tackle acute lymphoblastic leukemia” (Nature Communications, 2023)
Read-outs that look alike come from different tables or passages of the source.

Assays:
CCRF-CEM cell line = assay: dCK cellular assay: CCRF-CEM proliferation in the presence of dT and dC; format: cell-based, human; details: Homo sapiens; Figure 2a, CCRF-CEM cell line, mean; read-out: IC50 (nM) (Cell Prolif)
How it was run: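 Two conditions in T-ALL CCRF-CEM cells: compound only, and compound with thymidine blocking de novo synthesis and deoxycytidine rescuing via dCK. Metabolic dye fluorescence (560/590 nm) gives % proliferation vs DMSO; IC50s, mean ± SD of at least three triplicate runs.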

dCK-C3S-S74E [1] = target: T1, dCK-C3S-S74E (Homo sapiens, UniProt P27707, form not given/S74E)
T1 sequence (P27707 whole entry S74E, form open): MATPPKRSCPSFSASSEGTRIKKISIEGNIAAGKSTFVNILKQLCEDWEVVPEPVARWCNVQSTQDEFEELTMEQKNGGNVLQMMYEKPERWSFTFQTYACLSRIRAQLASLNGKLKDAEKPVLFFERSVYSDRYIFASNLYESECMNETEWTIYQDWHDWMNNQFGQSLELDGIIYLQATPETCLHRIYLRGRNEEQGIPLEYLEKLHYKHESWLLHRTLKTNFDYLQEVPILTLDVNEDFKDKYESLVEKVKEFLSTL

dCK-C3S-S74E [2] = target: T1, dCK-C3S-S74E; assay: Thermal shift assay (TSA)
dCK-C3S-S74E [3] = target: T1, dCK-C3S-S74E; assay: Enzymatic assay (PK/LDH coupled), dC phosphorylation by dCK in the presence of UTP; format: biochemical; details: presence of UTP
Method: (§1) For enzymatic assays, cells were re-suspended in 20 mM TRIS, pH 8 500 mM NaCl, 0.1% BRIJ-35 and 5% glycerol buffer and one EDTA free anti-protease tablet was added (Roche). After sonication and centrifugation (30,000 × g), the supernatant was loaded on a 5 ml HisTrap FF column (GE healthcare) pre-equilibrated with 20 mM TRIS, pH 8, 500 mM NaCl, 0.01% BRIJ-35 and 5% glycerol buffer. The protein was then eluted by the same buffer containing 250 mM imidazole after a wash containing 25 mM imidazole. The eluted fraction was applied on a HiPrep 26/10 desalting column (GE healthcare) pre-equilibrated with 20 mM TRIS, pH 8, 500 mM NaCl, 5% glycerol and 0.01% BRIJ-35 buffer. Finally, protein in a 20% glycerol buffer was flash frozen in liquid nitrogen and stored at −80 °C.
Kinetic analyses were performed using a spectrophotometric continuous enzymatic-coupled assay using pyruvate kinase (PK) and lactate dehydrogenase (LDH). […] UTP is the physiological dCK-phosphate donor[46] and it was used to determine activation versus inhibition behavior. ATP was used to calculate IC50 values, as it allows the analysis of a dose response curve. The PK/LDH coupled assay is based on the conversion of phosphoenolpyruvate (PEP) and UDP/ADP to pyruvate and UTP/ATP by PK and the subsequent conversion of pyruvate to lactate by LDH. The latter step requires NADH, which is oxidized to NAD^+. NADH is fluorescent (excitation at 337 nm and emission at 460 nm), but not NAD^+. Thus, the measurement of fluorescent decrease at 460 nm is a measure of kinase activity. dCK experiments were performed in a buffer containing 50 mM HEPES, pH 7.5, 5 mM MgCl2, 1 mM DTT, and 100 mM KCl. Buffer was supplemented with PK (0.01 U/µl), LDH (0.02 U/µl), PEP (1 mM), NADH (300 µM) and compounds at varying concentrations. For UTP assays, protein concentration was 2 μM, substrate 200 µM (dC), and UTP 1 mM. For ATP assays, protein concentration was 100 nM (and 50 nM when indicated), substrate 100 µM (dC), and ATP 1 mM. All measurements were performed on a microplate reader Pherastar FS (BMG Labtech). All assays were performed in triplicate and each experiment was performed at least twice. The data are presented as mean ± SD. The results were plotted as kinetics and the velocity was determined for each condition as the slope of the linear range of the curve. For each compound concentration, the velocity of the reaction (according to V = d[P]/dt) was normalized with respect to the drug free control and velocity ratios were compared. IC50 values corresponding to enzymatic inhibition in ATP were calculated by nonlinear regression curves using GraphPad Prism software 9.4.0.

[4] = Plasma pharmacokinetics after IP administration; format: in vivo; details: male, Swiss, mouse, mice, dose 40 mg/Kg
Method: (§2) To evaluate the in vivo toxicity selected compounds were injected by intraperitoneal (IP) route to 7 weeks-old male Swiss mice (n = 2) at 10, 20, 40, 50, or 80 mg/kg by unique injection. […] Compounds were administered in their hydrochloride salt forms. Mice were then observed closely for the next one hour, then every hour for 8 h. Observations were continued for 72 h for signs of pain or toxicity such as change in the behavior and in the activity in the cage (decreased locomotion) or change in the appearance (curved back, eyes half-closed, bristle hair, hips hollowed out). In vivo toxicity of compound OR0642 at 40 and 80 mg/kg was also assessed in the NOD-SCID-IL2Rγc null (NSG) mice model for 2 weeks in the presence and absence of dT to confirm the safety of the compound. […]. Blood samples were collected and spun at 10,000 × g prior to collecting the plasma supernatants. All plasma samples were frozen at −80 °C before sample processing. 13 μl of each plasma sample was mixed with 33 μl of acetonitrile to precipitate proteins and extract the compound. Samples were vortexed for 5 min and then placed in an ultrasonic bath for 1 min. The precipitated proteins were sedimented by centrifugation (15,000 × g, 5 min, 16 °C). Supernatants were transferred to a microplate to be analyzed by LC–MS/MS. All samples were analyzed with a UHPLC coupled to a Shimadzu LC-MS 8030 triple quadrupole. The solutions of a standard range, prepared with plasma from untreated mice, were analyzed in the same series of injections.

[5] = Acute in vivo toxicity, unique IP injection; details: male, mouse, in vivo; Swiss mice, IP, unique injection; read-out: Maximum tolerated dose
Method: as §2

Swiss male mice = assay: Acute in vivo toxicity, unique IP injection; details: mice, 80 mg/kg/day
Method: as §2

dCK-C3S-S74E [6] = target: T1, dCK-C3S-S74E; assay: Enzymatic assay (PK/LDH coupled), dC phosphorylation by dCK in the presence of ATP; format: biochemical
Method: as §1
Kinetic analyses were performed using a spectrophotometric continuous enzymatic-coupled assay using pyruvate kinase (PK) and lactate dehydrogenase (LDH). Analysis of the effect of compounds on dCK-C3S-S74E activity was performed using dC as substrate and UTP/ATP as phosphate donors. UTP is the physiological dCK-phosphate donor[46] and it was used to determine activation versus inhibition behavior. ATP was used to calculate IC50 values, as it allows the analysis of a dose response curve. The PK/LDH coupled assay is based on the conversion of phosphoenolpyruvate (PEP) and UDP/ADP to pyruvate and UTP/ATP by PK and the subsequent conversion of pyruvate to lactate by LDH. The latter step requires NADH, which is oxidized to NAD^+. NADH is fluorescent (excitation at 337 nm and emission at 460 nm), but not NAD^+. Thus, the measurement of fluorescent decrease at 460 nm is a measure of kinase activity. dCK experiments were performed in a buffer containing 50 mM HEPES, pH 7.5, 5 mM MgCl2, 1 mM DTT, and 100 mM KCl. Buffer was supplemented with PK (0.01 U/µl), LDH (0.02 U/µl), PEP (1 mM), NADH (300 µM) and compounds at varying concentrations. For UTP assays, protein concentration was 2 μM, substrate 200 µM (dC), and UTP 1 mM. For ATP assays, protein concentration was 100 nM (and 50 nM when indicated), substrate 100 µM (dC), and ATP 1 mM. All measurements were performed on a microplate reader Pherastar FS (BMG Labtech). All assays were performed in triplicate and each experiment was performed at least twice. The data are presented as mean ± SD. The results were plotted as kinetics and the velocity was determined for each condition as the slope of the linear range of the curve. For each compound concentration, the velocity of the reaction (according to V = d[P]/dt) was normalized with respect to the drug free control and velocity ratios were compared. IC50 values corresponding to enzymatic inhibition in ATP were calculated by nonlinear regression curves using GraphPad Prism software 9.4.0.

SMILES: CCCN(c1nc(-c2nc(N)cc(N)n2)cs1)c1cc(-c2ccc(OCC(=O)N3CCN(C)CC3)nc2)ccc1C [OR0630]
- IC50 (CCRF-CEM cell line): 245 nM
- ΔTm (º) (TSA) (dCK-C3S-S74E [1]): 17.35 º

SMILES: CCCN(c1nc(-c2nc(N)cc(N)n2)cs1)c1cc(-c2ccc(S(=O)(=O)N3CCN(C)CC3)nc2)ccc1C [OR0634]
- ΔTm (º) (TSA) (dCK-C3S-S74E [2]; Figure 2a, mean): 17.45 º
- Thermal Shift Assay Mean (ΔTm (º)) (dCK-C3S-S74E [2]; Figure 2b): 17.5 º
- ENZYMATIC ASSAY (Activation/Inhibition) (dCK-C3S-S74E [3]): I
- Cmax [4]: 5.5 ± 1.3 µM
- Tmax [4]: 1 h
- half-life ([4]; read-out: T ½ (converted)): 2.15 ± 0.283 h
- MTD at 72 h [5]: > 80 mg/kg
- in vivo tolerance (Swiss male mice): well tolerated
- Enzymatic activity (ATP) Mean (% activity) (dCK-C3S-S74E [6]; 0.02 µM): 89.7%
- Enzymatic activity (ATP) Mean (% activity) (dCK-C3S-S74E [6]; 0.04 µM): 80.2%
- Enzymatic activity (ATP) Mean (% activity) (dCK-C3S-S74E [6]; 0.08 µM): 45.4%
- Enzymatic activity (ATP) Mean (% activity) (dCK-C3S-S74E [6]; 0.16 µM): 12.5%
- Enzymatic activity (ATP) Mean (% activity) (dCK-C3S-S74E [6]; 0.31 µM): 4.0%
- Enzymatic activity (ATP) Mean (% activity) (dCK-C3S-S74E [6]; 0.63 µM): 2.2%
- Enzymatic activity (ATP) Mean (% activity) (dCK-C3S-S74E [6]; 1.25 µM): 1.9%
- Enzymatic activity (ATP) Mean (% activity) (dCK-C3S-S74E [6]; 2.5 µM): 1.6%
- Enzymatic activity (ATP) Mean (% activity) (dCK-C3S-S74E [6]; 5 µM): 1.6%
- IC50 (dCK-C3S-S74E [6]; read-out: ENZYMATIC ASSAY IC50, presence of ATP, [dCK] = 50 nM (footnote A)): 100 ± 82 nM
